Assay results published in patent US4129577A (priority 1977, dated 1978).

Legend:
pigeons [1] = conditions: in vivo, po
KB cell = assay type: cell-based, human; conditions: for Activity in μg/ml (ED50 = concentration causing 50% inhibition of growth): kb cells
mice = conditions: mouse, in vivo, ip
pigeons [2] = conditions: in vivo

Structure (SMILES)	toxicity relative to T-2 toxin (pigeons [1])	times more active than T-2 toxin (KB cell)	Activity in μg/ml (ED50 = concentration causing 50% inhibition of growth) (KB cell)	toxicity relative to T-2 toxin (mice)	vomiting (pigeons [2])
CC(=O)OCC12CC(OC(=O)CC(C)C)C(C)=CC1OC1C(OC(C)=O)C(OC(C)=O)C2(C)C12CO2 (stereo not shown) [AT-2]	less than 1/6	about 5,000 times	10^-8 μg/ml	less than 1/2	virtually completely eliminated
CC(=O)OCC12CC(OC(=O)CC(C)C)C(C)=CC1OC1C(OC(=O)c3ccccc3)C(OC(C)=O)C2(C)C12CO2 (stereo not shown) [BzT-2]	–	–	10 µg/mL	–	–
CCC(=O)OC1C2OC3C=C(C)C(OC(=O)CC(C)C)CC3(COC(C)=O)C(C)(C1OC(C)=O)C21CO1 (stereo not shown) [PT-2]	–	–	10^-8 μg/ml	–	–
